“Also recorded” adds a separate entry of the source.
How the values were obtained:
AgRP neurons = experiment: AgRP neuron viability and activation (FOS); format: in vivo, mouse; conditions: Bobcat339 vs. vehicle mice
From the text: As genetic TET3 knockdown specifically in AgRP neurons activated these neurons (Xie et al., 2022, J Clin Invest, 132), additional studies tested whether Bobcat339 treatment can activate AgRP neurons using FOS (a marker for neuronal activation) as a readout. Thus, ARCs were isolated under fed conditions (9:00-11:00) from mice treated with Bobcat339 or vehicle as above (FIG. 16A through FIG. 16D).
Bobcat339 powder (Sigma-Aldrich, SML2611) was freshly dissolved in DMSO (vehicle) at a concentration of 50 mg/mL and filtered through a 0.22 micron. It was further diluted with 1×PBS to a final concentration of 0.5 mg/mL before injections. Mice were injected intraperitoneally with Bobcat339 at 1 mg/kg, 2.5 mg/kg, or 4 mg/kg.
The immunofluorescence for brain slices was conducted using previous methods (18). In brief, postfixed sections were cut into 40-μm-thick sections, followed by 5 times washing. […] The sections were coverslipped and scoped using a Keyence BZ-X700 fluorescence microscope. The fluorescence signals from GFP in AgRP neurons were detected without immunostaining.

murine model of NASH = experiment: High fat high sugar diet-induced murine model of NASH; format: in vivo, mouse; conditions: for fasting glucose / glucose tolerance: week 12; for plasma AST: week 13
Protocol: As TET3-positive macrophages were also detected in human NASH (FIG. 24B), studies were performed to investigate whether depleting these macrophages would reduce NASH progression. Despite the high efficiency (up to 90%) of the LysM-cre strain in manipulating macrophages originated from myeloid progenitors including those in the peritoneal cavity, peripheral blood and bone marrow, only ~40% of tissue resident macrophages derived from yolk sac (e.g., those in the liver and the spleen red pulp) were affected (Shi et al., 2018, Methods Mol Biol, 1784:263-275). While the inefficacy of the LysM-cre strain in depleting tissue resident macrophages has precluded using the Mye-Tet3 ko mice, potential effects of Bobcat339 in steatosis, inflammation, and fibrosis were assessed using a high fat high sugar diet-induced murine model of NASH (Ishimoto et al., 2013, Hepatology, 58:1632-1643; Kroh et al., 2020, Gastroenterol Res Pract, 7347068; Baiges-Gaya et al., 2021, J Nutr Biochem, 89:108559). As shown schematically in FIG. 29A, mice were placed on a standard chow diet (CD) (control group) or a western diet with 10% sucrose in drinking water (WD) for 8 weeks to induce an early NASH phenotype (Kroh et al., 2020, Gastroenterol Res Pract, 7347068). Then, these mice were therapeutically dosed intravenously once a week from week 8 through week 11 with either 2.5 mg/kg Bobcat339 (treatment group) or vehicle (model group) for a total of 13 weeks on diets. Mice were euthanized following a 12 h overnight fasting, and plasma and liver were harvested for analyses.
Then, these mice were therapeutically dosed intravenously once a week from week 8 through week 11 with either 3 mg/kg Bobcat339 (treatment group) or vehicle (model group) for a total of 13 weeks on diets. At the end of the study, mice were euthanized following a 12 h overnight fasting, and plasma and liver were harvested for analyses.
Male C57BL/6J mice of 6-weeks old were randomly divided into three groups, with each containing 5 animals. The control group were fed a standard chow diet (CD). The model group and the treatment group were fed a western diet (WD) (40 kcal % fat, 20 kcal % fructose, and 2 kcal % cholesterol, Research Diets, D09100301) supplemented with 10% sucrose in drinking water provided ad libitum. In the treatment group, Bobcat339 administration was initiated following 8 weeks of WD by tail vein injection at 2.5 mg/kg body weight once a week for 4 weeks. The control group and the model group received vehicle (DMSO) tail vein injections. […] After a total of 13 weeks on diets, mice were sacrificed following a 12 h overnight fasting, and plasma and liver were harvested for analyses.
GTT were performed following 16 h overnight fasting. Each animal received an i.p. injection of 2 g/kg of glucose (Sigma-Aldrich, G5767) in sterile saline. Blood glucose concentrations were measured using Contour next blood glucose meter (Ascensia Diabetes Care) via tail vein bleeding at the indicated time points after injection.
These were assessed using Triglyceride Content Assay Kit (Solarbio, BC0625) and Hydroxyproline Assay Kit (Sigma-Aldrich, MAK008-1KT), respectively.
Mouse liver samples were collected and fixed at 4 °C with 4% of phosphate buffered paraformaldehyde for 24 h. Fixed tissue specimens were embedded in paraffin and cut into […] tissue sections for histopathological analysis. Tissue sections were stained with Hematoxylin-Eosin according to standard protocols. For Sirius Red/Fast Green staining, slides were deparaffinized by heating at 65 °C for 60 min, followed by xylene wash 3 times 5 min each. The slides were then rehydrated in 100%, 90%, 80% and 70% ethanol for 5 min each, followed by ddH2O wash 2 times 5 min each. Then they were incubated in 0.04% Fast Green (Sigma-Aldrich, F7258) in saturated [COMPOUND LEFT OUT] for 15 min, washed with distilled water and then incubated in 0.1% Fast Green and 0.08% Sirius Red (Sigma-Aldrich, 365546) in saturated [COMPOUND LEFT OUT] for 30 min. […]

SMILES: Nc1nc(=O)n(-c2cccc(-c3ccccc3)c2)cc1Cl [Bobcat339, 4-Amino-1-[1,1′-biphenyl]-3-yl-5-chloro-2(1H)-pyrimidinone]
- AgRP neuronal viability / number (AgRP neurons): did not affect AgRP neuronal viability; also recorded: no significant difference between the groups
- FOS expression in AgRP neurons (AgRP neurons; fed): increased expression of FOS in AgRP neurons
- NAS score (murine model of NASH; 2.5 mg/kg i.v. once a week): reduced NAS scores
- TET3-expressing macrophages in liver (murine model of NASH; 2.5 mg/kg i.v. once a week): depleted after Bobcat339 treatment
- fibrosis stage (murine model of NASH; 2.5 mg/kg i.v. once a week): a significant reduction in both the fibrosis stage and the hydroxyproline content
- histological severity of steatosis and fibrosis (murine model of NASH; 2.5 mg/kg i.v. once a week): significantly reduced the severity of both steatosis and fibrosis
- liver hydroxyproline content (murine model of NASH; 2.5 mg/kg i.v. once a week): a significant reduction in both the fibrosis stage and the hydroxyproline content
- liver triglycerides (murine model of NASH; 2.5 mg/kg i.v. once a week): normalized liver triglycerides
- liver-to-body weight ratio (murine model of NASH; 2.5 mg/kg i.v. once a week): decreased liver-to-body weight ratio
- fasting glucose (murine model of NASH; 2.5 mg/kg i.v. once a week): a significant improvement
- glucose tolerance (murine model of NASH; 2.5 mg/kg i.v. once a week): a significant improvement
- plasma AST (murine model of NASH; 2.5 mg/kg i.v. once a week): normalized this marker
- IL-1b and IL-6 in CD163+ macrophage-enriched areas of liver (murine model of NASH; 3 mg/kg i.v. once a week): reduced the expression of IL-1b and IL-6
- NAS score (murine model of NASH; 3 mg/kg i.v. once a week): reduced NAS scores
- TET3-overexpressing CD163+ macrophages in liver (murine model of NASH; 3 mg/kg i.v. once a week): significantly reduced after Bobcat339 treatment
- fibrosis stage (murine model of NASH; 3 mg/kg i.v. once a week): a significant reduction in both the fibrosis stage and hydroxyproline content
- histological severity of steatosis and fibrosis (murine model of NASH; 3 mg/kg i.v. once a week): significantly reduced the severity of both steatosis and fibrosis
- hydroxyproline content (murine model of NASH; 3 mg/kg i.v. once a week): a significant reduction in both the fibrosis stage and hydroxyproline content
- liver triglycerides (murine model of NASH; 3 mg/kg i.v. once a week): normalized liver triglycerides
- liver-to-body weight ratio (murine model of NASH; 3 mg/kg i.v. once a week): decreased liver-to-body weight ratio
- fasting glucose (murine model of NASH; 3 mg/kg i.v. once a week): a significant improvement
- glucose tolerance (murine model of NASH; 3 mg/kg i.v. once a week): a significant improvement
- plasma AST (murine model of NASH; 3 mg/kg i.v. once a week): normalized this marker
